# In patent publication US20090076571A1, “MRI-Guided Photodynamic Therapy For Cancer” (priority 2004, published 2009):
# Legend:
# [1] = test system: MDA-MB-231 human breast carcinoma xenograft tumor; assay: Contrast-enhanced MR imaging of tumor-bearing mice after injection of polymer conjugates; assay type: in vivo, female athymic nu/nu mice; conditions: for Contrast in all tissues including tumor, heart and liver compared to pre-contrast: 5 minutes post injection; for Increase in signal intensity of tumor as compared to precontrast: 2 hours post injection, semi-quantitative evaluation, 6 mice per group
# Procedure: Female athymic nu/nu mice were purchased from NCI (Frederick, Md.) at the age of 6 weeks. To generate tumor models, each mouse was injected subcutaneously with 2×10^6 MB-231 cells in 100 μl of culture media mixed with 100 μl of BD MATRIGEL, a solubulized basement membrane preparation extracted from EHS mouse sarcoma, in the flank region. Magnetic resonance imaging and photodynamic therapy studies were carried out at an average tumor size of 25-40 mm^3.
# MR imaging was performed on a Siemens Trio 3T MRI scanner. The animals were anesthetized by intra-peritoneal or intra-muscular injection of the anesthetic (mixture of ketamine—80 mg/kg body weight and xylazine—12 mg/kg body weight).
# For imaging purposes, the animals were placed in the human wrist coil and pre-contrast images (prior to the injection of the polymer chelate system containing the drug and the contrast agent) were obtained using a 3D FLASH (Fast Low Angle Shot) sequence.
# After obtaining the pre-contrast images, the macromolecular complexes were injected at a dose of 0.09 mmol Gd/kg body weight and 6 mg/kg of Mce6 by tail vein injection. Image acquisition was set at 5, 30, 60, 120 minutes and 24 hours post injection. Animal imaging was performed using the multi-phase T1 weighted sequence. The repetition time was about 6 milliseconds to 2 milliseconds, respectively; consistent with the 4 to 8 cm FIV (field of view) and 0.5 mm slice thickness chosen for each animal. The imaging volume was acquired before injection and in rapid succession after injection. Each acquisition required about 30 seconds.
# MR imaging. […] FIG. 7 and FIG. 8 show 2D coronal MR images through tumor and heart respectively. The upper panel of FIG. 7 represents mice with Pol1 and the lower panel upper represents mice with Pol2. The upper panel of FIG. 8 represents mice with Pol1 and the lower panel represents mice with Pol2. […] The higher signal in heart may be due to high molecular weight fractions of the control polymer.
# Increase in Signal intensity of tumor for both groups as compared to precontrast at 2 hours is 100%. Signal intensity at 18 hours post injection was at least 30% higher than precontrast for both Pol1 and Pol2. Quantitative evaluation of signal intensities using IDL was performed to corroborate the data obtained from semi-quantitative analysis.
# [2] = T1 relaxivity of polymer complexes; assay type: physicochemical; conditions: Siemens Trio 3T scanner, inversion recovery sequence
# [3] = test system: MDA-MB-231 human breast carcinoma xenograft tumor; assay: Efficiency of photodynamic therapy (650 nm laser irradiation of tumor); assay type: in vivo, female athymic nu/nu mice; conditions: for Tumor volume after photodynamic therapy: FIG. 11, irradiation 650 nm, 6 mice per group
# Procedure: Molecular weight determination was carried out by Size Exclusion Chromatography (SEC) on an AKTA FPLC system with a Superdex 200/Superose 6 column equipped with UV and refractive index detectors (Amersham Biosciences Corp., Piscataway, N.J.). The FPLC columns were calibrated with poly[N-(2-hydroxypropyl)methacrylamide] standards. ^1H NMR spectra were acquired on a Varian INOVA 400 at 400 MHz at 25° C. ESI-MS spectra were acquired on a PE Sciex API III Mass Spectrometer at the University of Utah Mass Spectrometry and Proteonomic Core Facility. Meso chlorin content was determined on Cary Win UV-Vis spectrometer. Gd content was determined using Inductively Coupled argon Plasma-Optical Emission Spectrometer (ICP-OES) (Perkin Elmer, Norwalk, Conn., Optima 3100XL). T1 relaxivity measurements for the final conjugates were acquired on a Siemens Trio 3T MRI scanner using standard inversion recovery sequence. Photodynamic therapy was carried out via Diode Odyssey laser (650nm) (CAO Group, UT).
# Female athymic nu/nu mice were purchased from NCI (Frederick, Md.) at the age of 6 weeks. […] Magnetic resonance imaging and photodynamic therapy studies were carried out at an average tumor size of 25-40 mm^3.
# Then the tumor was irradiated, 2 hours and 18 hours post-injection, using light of wavelength 650 nm (Denlaser) with an input of 220 mW/cm^2 energy and 0.5 mm aperture for irradiation. The time of irradiation was 15 minutes. The mice were then kept away from direct light to avoid extraneous irradiation and the reduction in tumor volume was measured.
# Efficiency of Photodynamic therapy.
Substance,"Contrast in all tissues including tumor, heart and liver compared to pre-contrast [1]",Increase in signal intensity of tumor as compared to precontrast [1] [%],Relaxivity [2] [mM − 1 sec − 1],Tumor volume after photodynamic therapy [3],"Mice with tumors larger than 10% of the body weight, sacrificed ([3]; out of 6 mice in the group)","Mice surviving for the time period of the experiment ([3]; 90 days, group of 6 mice)"
Gd (III)-DOTA-linker-PLGA [Pol2],increased contrast,100,8.33,rapid increase in tumors,5,–
Gd (III)-DOTA-linker-PLGA-Mce6 [Pol1],increased contrast,100,8.46,reduction in tumor volume or slowed tumor growth,–,4 out of 6
